# Experimental data from BindingDB's records for doi:10.7270/Q2B27SRF (Broad Institute, 2010).
# Biological target: Serine/threonine-protein kinase 33 (Homo sapiens, UniProt Q9BYT3)
# Experiment: STK33 kinase inhibitors, dose response, biochemical, luminescence, cell-free, retest (AID 2821)
# Serine/threonine-protein kinase 33, sequence (Q9BYT3 whole entry): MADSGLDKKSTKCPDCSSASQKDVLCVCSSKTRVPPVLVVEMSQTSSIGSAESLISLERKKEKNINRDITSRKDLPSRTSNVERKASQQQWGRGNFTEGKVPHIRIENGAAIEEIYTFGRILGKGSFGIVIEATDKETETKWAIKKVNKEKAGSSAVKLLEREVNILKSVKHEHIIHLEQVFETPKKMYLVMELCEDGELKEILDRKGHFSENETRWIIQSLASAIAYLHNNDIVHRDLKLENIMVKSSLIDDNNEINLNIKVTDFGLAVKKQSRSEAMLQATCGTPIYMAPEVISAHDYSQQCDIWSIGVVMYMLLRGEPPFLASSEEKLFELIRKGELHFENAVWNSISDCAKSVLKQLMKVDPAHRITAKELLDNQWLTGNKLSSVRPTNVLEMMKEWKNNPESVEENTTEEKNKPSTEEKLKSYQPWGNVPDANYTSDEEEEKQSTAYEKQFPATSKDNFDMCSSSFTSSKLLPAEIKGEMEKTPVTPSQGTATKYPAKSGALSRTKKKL
row,EC50 [µM],Structure (SMILES)
1,10.3,Cc1cc(N2CCN(C)CC2)nc2ccc(NC(=O)c3ccc(Br)o3)cc12 [SMR000022431]
2,32.2,Cc1ccc(C(=O)O/N=C(\N)c2ccccn2)c(Cl)c1 [MLS001206211]
3,15.9,CN(C)/C=C/C(=O)c1ccc2noc(-c3ccccc3)c2c1 [SMR000549693]
4,17,Cc1sc2ncnc(N=NCc3cccc(O)c3)c2c1C [SMR000219295]
5,68.2,COc1ccc(C(=O)ON=C(C)c2ccccc2)cc1 [SMR000159704]
6,> 120,CN1CCc2c(sc3c2c(=O)n(-c2ccccc2)c2n[nH]c(=S)n32)C1 [MLS000558136]
7,14.2,O=C(O)Cn1cc(C=c2sc3nc4ccccc4n3c2=O)c2ccccc21 [SMR000298358]
8,1.86,COC(=O)c1ccc(COc2ccccc2/C=C/C(=O)c2ccc(OCC(=O)O)cc2)cc1 [SMR000590970]
9,40.4,COc1ccc(C(=O)ON=C(N)c2ccccn2)cc1 [SMR000608101]
10,16.1,Nc1ccc(N=Nc2ccccc2O)c(N)c1 [SMR000476341]

# The remaining lines, values behind:
row,Structure (SMILES),EC50 [µM]
1,CC(C)n1cnc2c(Nc3cccc(Cl)c3)nc(N(CCO)CCCO)nc21,2.86
2,"CCOc1cc(/C=C2\SC(N3CCCC(C)C3)=NC2=O)ccc1O (stereo not drawn) [(5Z)-5-[(3-ethoxy-4-hydroxyphenyl)methylidene]-2-(3-methylpiperidin-1-yl)-1,3-thiazol-4-one]",> 120
3,COc1cc(C=C2SC(Nc3ccccc3OC)=NC2=O)ccc1O [5-(4-Hydroxy-3-methoxy-benzylidene)-2-(2-methoxy-phenylimino)-thiazolidin-4-one],4
4,COc1c(O)cc2oc(-c3ccc(O)c(O)c3)cc(=O)c2c1O,11
5,"CCN(CC)c1ccc(/C=C2/C(=O)c3ccc(C(=O)O)cc3C2=O)cc1 [(2Z)-2-[[4-(diethylamino)phenyl]methylidene]-1,3-dioxoindene-5-carboxylic acid]",3.83
6,CCn1c2ccc(C(C)N=O)cc2c2cc(C(C)N=O)ccc21 (stereo not drawn) [N-[1-[9-ethyl-6-(C-methyl-N-oxidanyl-carbonimidoyl)carbazol-3-yl]ethylidene]hydroxylamine],> 120
7,O=c1c2ccccc2sc2ccc(NCCCN3CCOCC3)cc12,16.8
8,"COC(=O)Nc1nnc(Cc2ccccc2)s1 [N-[5-(phenylmethyl)-1,3,4-thiadiazol-2-yl]carbamic acid methyl ester]",> 120
9,Cc1cc(O)ccc1NS(=O)(=O)c1ccc2c3c(cccc13)C(=O)N2 [N-(2-methyl-4-oxidanyl-phenyl)-2-oxidanylidene-1H-benzo[cd]indole-6-sulfonamide],19.2
10,"COc1cc(-c2cc(=O)c3c(O)c(OC)c(OC)c(O)c3o2)ccc1O [5,8-dihydroxy-2-(4-hydroxy-3-methoxy-phenyl)-6,7-dimethoxy-chromone]",9.68
11,CCn1c(/C=C/c2ccc([N+](=O)[O-])o2)nc2ccccc2c1=O [3-ethyl-2-[(E)-2-(5-nitro-2-furanyl)ethenyl]-4-quinazolinone],> 120
12,Fc1ccc(-c2c[nH]cn2)cc1 [4-(4-fluorophenyl)-1H-imidazole],> 120
13,COc1ccc(C(=O)ON=C(N)c2ccccc2)cc1,> 120
